Test results taken from patent publication US20050129782A1, “Use of inorganic nanoparticles to stabilize hydrogen peroxide solutions” (Alcon, Inc., priority 2003, published 2005).

Columns and labels:
[1] = Stability of 3% hydrogen peroxide solutions with stabilizing agents, heated at 100° C. for 24 hours, KMnO4 titration (Example 1); format: physicochemical; conditions: 3% H2O2, phosphate buffer pH 6.5, 100° C. 24 hours vs 25° C.
Protocol: 3% hydrogen peroxide solutions containing three different stabilizing agents were formulated in phosphate buffer at pH 6.5. 10 ml samples were heated in HCl-cleaned test tubes at 100° C. for 24 hours to simulate a two year shelf life. Then a 200 microliter aliquot was added to 40 ml of a 2.75% H2SO4 solution and titrated with 0.01N KMnO4.

[2] = Stability of 100 ppm H2O2 at various pHs, heated at 100° C. for 24 hours, KMnO4 titration (Example 3); format: physicochemical; conditions: 60 ppm Dequest 2060 (control); 100 ppm H2O2, pH 6.5; 100° C. 24 hours vs RT
Protocol: The effectiveness of 50 ppm Laponite® XLG to stabilize 100 ppm H2O2 at various pH levels was evaluated.
50 ppm Laponite® XLG was formulated in a phosphate buffer (0.8655% NaCl, 0.0622% sodium phosphate dibasic, 0.0072% sodium phosphate monobasic monohydrate), along with 100 ppm hydrogen peroxide (from a 30% unstabilized solution). 100 mL samples were then adjusted to pH levels of 6.5, 7.0 and 7.5, respectively. 10 mL of each sample was then placed in a test tube, sealed with a screw cap, and heated to 100° C. for 24 hours. After heating, 5 mL of each sample was titrated with 0.002% KMnO4 and compared to the unheated sample to obtain % stability. 60 ppm of Dequest® 2060 at pH 6.5 was used as a control.

| SMILES | % Stability of H2O2 ([1]; stabilizer 180 ppm) [%] | % stability [2] [%] | % Stability of H2O2 ([1]; stabilizer 500 ppm) [%] |
| --- | --- | --- | --- |
| O=P(O)(O)CN(CCN(CP(=O)(O)O)CP(=O)(O)O)CCN(CP(=O)(O)O)CP(=O)(O)O [Dequest ® 2060] | 98.2 | 92.9 | – |
| O=C(O)CN(CCN(CC(=O)O)CC(=O)O)CC(=O)O [EDTA] | – | – | 24.8 |
